Laboratory results from patent publication US10308643B2, “Heterocyclic compound” (Takeda Pharmaceutical Company Limited, priority 2015, dated 2019).

Key:
Type in all cases: biochemical
HDAC6 enzyme = molecular target: T1, HDAC6 enzyme (Homo sapiens, UniProt Q9UBN7); experiment: HDAC1/6 Enzyme Inhibitory Assay (HDAC-Glo I/II Assay kit), HDAC6; settings: 1 μM test compound; wells without enzyme = 100% inhibition; read-out: HDAC6 inhibitory rate (%) (1 μM)
T1 construct: transducing full length HDAC1 and HDAC6 genes into Sf-9 insect cells; GST; purchased SignalChem; host or cells: Sf-9 insect cells
T1 sequence (Q9UBN7 1-1215): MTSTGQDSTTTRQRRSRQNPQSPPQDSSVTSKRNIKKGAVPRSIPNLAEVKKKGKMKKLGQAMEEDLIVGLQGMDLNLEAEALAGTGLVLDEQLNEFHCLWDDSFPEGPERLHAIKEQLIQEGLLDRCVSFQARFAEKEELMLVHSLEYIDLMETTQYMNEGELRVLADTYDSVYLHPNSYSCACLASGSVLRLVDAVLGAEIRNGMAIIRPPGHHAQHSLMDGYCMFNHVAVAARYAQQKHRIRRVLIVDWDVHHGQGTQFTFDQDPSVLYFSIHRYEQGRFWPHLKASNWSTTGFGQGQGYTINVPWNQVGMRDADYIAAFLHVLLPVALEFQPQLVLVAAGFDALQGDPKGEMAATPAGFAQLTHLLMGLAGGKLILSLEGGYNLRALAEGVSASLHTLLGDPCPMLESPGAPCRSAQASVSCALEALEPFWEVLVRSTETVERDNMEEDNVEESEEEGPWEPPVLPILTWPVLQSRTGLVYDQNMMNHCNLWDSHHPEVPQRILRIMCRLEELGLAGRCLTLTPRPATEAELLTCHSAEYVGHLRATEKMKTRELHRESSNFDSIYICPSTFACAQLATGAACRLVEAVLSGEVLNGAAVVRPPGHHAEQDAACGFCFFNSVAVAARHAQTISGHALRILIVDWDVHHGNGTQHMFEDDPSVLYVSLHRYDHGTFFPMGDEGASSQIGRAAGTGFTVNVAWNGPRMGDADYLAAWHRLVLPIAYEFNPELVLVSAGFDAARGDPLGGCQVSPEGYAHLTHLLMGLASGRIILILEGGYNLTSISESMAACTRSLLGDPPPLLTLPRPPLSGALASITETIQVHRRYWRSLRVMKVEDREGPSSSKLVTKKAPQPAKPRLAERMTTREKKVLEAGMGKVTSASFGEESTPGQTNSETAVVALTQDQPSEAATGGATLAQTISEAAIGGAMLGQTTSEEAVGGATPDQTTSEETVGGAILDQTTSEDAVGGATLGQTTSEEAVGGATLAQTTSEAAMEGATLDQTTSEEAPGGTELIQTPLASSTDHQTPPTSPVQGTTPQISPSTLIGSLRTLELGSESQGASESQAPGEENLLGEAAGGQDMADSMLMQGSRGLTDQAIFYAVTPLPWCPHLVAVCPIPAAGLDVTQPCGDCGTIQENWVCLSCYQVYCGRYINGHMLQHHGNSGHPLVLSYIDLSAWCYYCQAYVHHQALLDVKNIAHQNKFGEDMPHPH
Summary of the method: (§1)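 Inhibitory activity derives from HDAC-Glo luminescence, expressed relative to wells lacking enzyme (100% inhibition). Compounds meet full-length GST-purified HDAC1 or HDAC6 for 60 min at room temperature before a 20 min substrate-developer reaction.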

HDAC1 enzyme = molecular target: T2, HDAC1 enzyme (Homo sapiens, UniProt Q13547); experiment: HDAC1/6 Enzyme Inhibitory Assay (HDAC-Glo I/II Assay kit), HDAC1; settings: 1 μM test compound, wells without enzyme = 100% inhibition; for inhibition at 1 µM: read-out: HDAC1 inhibitory rate (%) (1 μM)
T2 construct: transducing full length HDAC1 and HDAC6 genes into Sf-9 insect cells; GST; purchased SignalChem; host or cells: Sf-9 insect cells
T2 sequence (Q13547 whole entry): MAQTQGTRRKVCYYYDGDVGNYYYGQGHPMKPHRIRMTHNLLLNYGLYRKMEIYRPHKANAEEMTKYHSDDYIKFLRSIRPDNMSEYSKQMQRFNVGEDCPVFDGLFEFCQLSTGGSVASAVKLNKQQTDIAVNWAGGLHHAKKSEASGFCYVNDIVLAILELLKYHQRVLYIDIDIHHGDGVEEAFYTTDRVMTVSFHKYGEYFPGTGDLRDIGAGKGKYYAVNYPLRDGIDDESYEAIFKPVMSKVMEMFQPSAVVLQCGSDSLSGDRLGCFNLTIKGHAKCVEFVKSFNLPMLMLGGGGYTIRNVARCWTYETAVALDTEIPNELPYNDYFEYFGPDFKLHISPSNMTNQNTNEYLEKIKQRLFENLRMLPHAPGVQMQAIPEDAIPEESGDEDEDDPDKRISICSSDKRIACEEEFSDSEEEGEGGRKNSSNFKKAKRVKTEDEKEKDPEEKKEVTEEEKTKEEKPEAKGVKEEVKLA
Summary of the method: as §1

HDAC9 enzyme = molecular target: T3, HDAC9 enzyme (Homo sapiens, UniProt Q9UKV0); experiment: HDAC9 Enzyme Inhibitory Assay (HDAC-Glo class IIa); settings: 1 μM test compound; wells without enzyme = 100% inhibition; read-out: HDAC9 inhibitory rate (%) (1 μM)
T3 construct: transducing full length HDAC9 gene into Sf-9 insect cells; made in house; host or cells: Sf-9 insect cells
T3 sequence (Q9UKV0 whole entry, species assumed): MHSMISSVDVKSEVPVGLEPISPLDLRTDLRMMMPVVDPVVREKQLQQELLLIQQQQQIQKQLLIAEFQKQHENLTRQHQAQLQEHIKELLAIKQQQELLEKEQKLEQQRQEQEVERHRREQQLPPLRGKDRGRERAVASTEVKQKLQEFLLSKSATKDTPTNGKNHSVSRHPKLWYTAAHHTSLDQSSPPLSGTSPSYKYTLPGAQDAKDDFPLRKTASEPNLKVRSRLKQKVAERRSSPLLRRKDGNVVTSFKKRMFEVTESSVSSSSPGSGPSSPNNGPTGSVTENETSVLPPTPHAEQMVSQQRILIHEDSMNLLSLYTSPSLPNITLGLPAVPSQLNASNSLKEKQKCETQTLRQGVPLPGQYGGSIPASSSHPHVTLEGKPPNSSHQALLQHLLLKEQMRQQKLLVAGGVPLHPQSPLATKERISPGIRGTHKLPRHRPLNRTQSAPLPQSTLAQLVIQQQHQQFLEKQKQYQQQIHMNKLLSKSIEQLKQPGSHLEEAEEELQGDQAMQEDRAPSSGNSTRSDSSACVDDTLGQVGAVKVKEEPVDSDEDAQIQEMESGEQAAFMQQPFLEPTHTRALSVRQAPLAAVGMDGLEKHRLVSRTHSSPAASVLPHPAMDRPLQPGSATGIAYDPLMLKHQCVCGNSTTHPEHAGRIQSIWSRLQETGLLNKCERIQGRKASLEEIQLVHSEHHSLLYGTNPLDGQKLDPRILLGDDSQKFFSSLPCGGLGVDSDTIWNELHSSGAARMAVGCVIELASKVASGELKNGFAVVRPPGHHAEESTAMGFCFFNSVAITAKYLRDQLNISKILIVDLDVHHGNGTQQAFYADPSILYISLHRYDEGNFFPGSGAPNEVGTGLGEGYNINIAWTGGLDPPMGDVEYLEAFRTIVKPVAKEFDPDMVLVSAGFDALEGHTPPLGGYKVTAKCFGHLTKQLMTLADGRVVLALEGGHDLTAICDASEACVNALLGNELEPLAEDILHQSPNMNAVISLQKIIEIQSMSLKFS
Summary of the method: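 Luminescent HDAC-Glo class IIa readout after a 20 min room-temperature reaction; relative inhibition referenced to enzyme-free wells as 100%. Test compound first preincubated 60 min with Sf-9-expressed, Ni-NTA-purified full-length HDAC9 in pH 7.5 Tris buffer containing 135 mM NaCl, 0.6 mM glutathione and 0.01% Tween-20.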

CN1CCC[C@H]1C(=O)N[C@@H]1CCCC[C@H]1N1Cc2ccc(-c3noc(C(F)(F)F)n3)cc2C1=O [Example 104, 1-methyl-N-((1R,2R)-2-(1-oxo-6-(5-(trifluoromethyl)-1,2,4-oxadiazol-3-yl)-1,3-dihydro-2H-isoindol-2-yl)cyclohexyl)-L-prolinamide] gave an inhibition at 1 µM (HDAC6 enzyme) of 98%, an inhibition at 1 µM (HDAC1 enzyme) of 3% and an inhibition at 1 µM (HDAC9 enzyme) of 43%.
O=C(N[C@@H]1CCCC[C@H]1N1Cc2ccc(-c3noc(C(F)(F)F)n3)cc2C1=O)C1CC1(F)F (stereo partly drawn) [Example 105, 2,2-difluoro-N-((1R,2R)-2-(1-oxo-6-(5-(trifluoromethyl)-1,2,4-oxadiazol-3-yl)-1,3-dihydro-2H-isoindol-2-yl)cyclohexyl) cyclopropanecarboxamide] gave an inhibition at 1 µM (HDAC6 enzyme) of 100%, an inhibition at 1 µM (HDAC1 enzyme) of 7% and an inhibition at 1 µM (HDAC9 enzyme) of 50%.
With N#Cc1ccccc1C(=O)N[C@@H]1CCCC[C@H]1N1Cc2ccc(-c3noc(C(F)(F)F)n3)cc2C1=O [Example 106, 2-cyano-N-((1R,2R)-2-(1-oxo-6-(5-(trifluoromethyl)-1,2,4-oxadiazol-3-yl)-1,3-dihydro-2H-isoindol-2-yl)cyclohexyl)benzamide] the inhibition at 1 µM (HDAC6 enzyme) was 101%, the inhibition at 1 µM (HDAC1 enzyme) was 58% and the inhibition at 1 µM (HDAC9 enzyme) was 88%.
For CC1(C)CC1C(=O)N[C@@H]1CCCC[C@H]1N1Cc2ccc(-c3noc(C(F)(F)F)n3)cc2C1=O (stereo partly drawn) [Example 107, 2,2-dimethyl-N-((1R,2R)-2-(1-oxo-6-(5-(trifluoromethyl)-1,2,4-oxadiazol-3-yl)-1,3-dihydro-2H-isoindol-2-yl)cyclohexyl) cyclopropanecarboxamide], the inhibition at 1 µM (HDAC6 enzyme) was 99%, the inhibition at 1 µM (HDAC1 enzyme) was 11% and the inhibition at 1 µM (HDAC9 enzyme) was 57%.
Work on O=C1NCCC1C(=O)N[C@@H]1CCCC[C@H]1N1Cc2ccc(-c3noc(C(F)(F)F)n3)cc2C1=O (stereo partly drawn) [Example 108, 2-oxo-N-((1Rr2R)-2-(1-oxo-6-(5-(trifluoromethyl)-l ,2,4-oxadiazol-3-yl)-1,3-dihydro-2H-isoindol-2-yl)cyclohexyl)pyrrolidine-3-carboxamide] yielded an inhibition at 1 µM (HDAC6 enzyme) of 97%, an inhibition at 1 µM (HDAC1 enzyme) of 2% and an inhibition at 1 µM (HDAC9 enzyme) of 35%.
For O=C1NCC(C(=O)N[C@@H]2CCCC[C@H]2N2Cc3ccc(-c4noc(C(F)(F)F)n4)cc3C2=O)N1 (stereo partly drawn) [Example 109, 2-oxo-N-((1R,2R)-2-(1-oxo-6-(5-(trifluoromethyl)-1,2,4-oxadiazol-3-yl)-1,3-dihydro-2H-isoindol-2-yl)cyclohexyl)imidazolidine-4-carboxamide], the inhibition at 1 µM (HDAC6 enzyme) was 71%, the inhibition at 1 µM (HDAC1 enzyme) was -2% and the inhibition at 1 µM (HDAC9 enzyme) was 19%.
Cn1cncc1C(=O)N[C@@H]1CCCC[C@H]1N1Cc2ccc(-c3noc(C(F)(F)F)n3)cc2C1=O [Example 110, 1-methyl-N-((1R,2R)-2-(1-oxo-6-(5-(trifluoromethyl)-1,2,4-oxadiazol-3-yl)-1,3-dihydro-2H-isoindol-2-yl)cyclohexyl)-1H-imidazole-5-carboxamide] showed an inhibition at 1 µM (HDAC6 enzyme) of 99%, an inhibition at 1 µM (HDAC1 enzyme) of 18% and an inhibition at 1 µM (HDAC9 enzyme) of 73%.
With CC1(C(=O)N[C@@H]2CCCC[C@H]2N2Cc3ccc(-c4noc(C(F)(F)F)n4)cc3C2=O)CC1(F)F (stereo partly drawn) [Example 111, 2,2-difluoro-1-methyl-N-((1R,2R)-2-(1-oxo-6-(5-(trifluoromethyl)-1,2,4-oxadiazol-3-yl)-1,3-dihydro-2H-isoindol-2-yl)cyclohexyl) cyclopropanecarboxamide] the inhibition at 1 µM (HDAC6 enzyme) was 99%, the inhibition at 1 µM (HDAC1 enzyme) was 14% and the inhibition at 1 µM (HDAC9 enzyme) was 69%.
Work on Cn1cc(C(=O)N[C@@H]2CCCC[C@H]2N2Cc3ccc(-c4noc(C(F)(F)F)n4)cc3C2=O)cn1 [Example 112, 1-methyl-N-((1R,2R)-2-(1-oxo-6-(5-(trifluoromethyl)-1,2,4-oxadiazol-3-yl)-1,3-dihydro-2H-isoindol-2-yl)cyclohexyl)-1H-pyrazole-4-carboxamide] yielded an inhibition at 1 µM (HDAC6 enzyme) of 96%, an inhibition at 1 µM (HDAC1 enzyme) of 13% and an inhibition at 1 µM (HDAC9 enzyme) of 57%.
O=C1c2cc(-c3noc(C(F)(F)F)n3)ccc2CN1[C@@H]1CCCC[C@H]1NC(=O)C1(CO)CCOCC1 [Example 113, 4-(hydroxymethyl)-N-((1R,2R)-2-(1-oxo-6-(5-(trifluoromethyl)-1,2,4-oxadiazol-3-yl)-1,3-dihydro-2H-isoindol-2-yl)cyclohexyl)tetrahydro-2H-pyran-4-carboxamide] gave an inhibition at 1 µM (HDAC6 enzyme) of 97%, an inhibition at 1 µM (HDAC1 enzyme) of 0% and an inhibition at 1 µM (HDAC9 enzyme) of 32%.
With CC(C)(C)N1CC(C(=O)N[C@@H]2CCCC[C@H]2N2Cc3ccc(-c4noc(C(F)(F)F)n4)cc3C2=O)C1 [Example 114, 1-tert-butyl-N-((1R,2R)-2-(1-oxo-6-(5-(trifluoromethyl)-1,2,4-oxadiazol-3-yl)-1,3-dihydro-2H-isoindol-2-yl)cyclohexyl)azetidine-3-carboxamide] the inhibition at 1 µM (HDAC6 enzyme) was 39%, the inhibition at 1 µM (HDAC1 enzyme) was 1% and the inhibition at 1 µM (HDAC9 enzyme) was 11%.
Molecule O=C(N[C@@H]1CCCC[C@H]1N1Cc2ccc(-c3noc(C(F)(F)F)n3)cc2C1=O)c1ccncn1 [Example 115, N-((1R,2R)-2-(1-oxo-6-(5-(trifluoromethyl)-1,2,4-oxadiazol-3-yl)-1,3-dihydro-2H-isoindol-2-yl)cyclohexyl)pyrimidine-4-carboxamide] has an inhibition at 1 µM (HDAC6 enzyme) of 99%, an inhibition at 1 µM (HDAC1 enzyme) of 16% and an inhibition at 1 µM (HDAC9 enzyme) of 64%.
In the case of O=C(N[C@@H]1CCCC[C@H]1N1Cc2ccc(-c3noc(C(F)(F)F)n3)cc2C1=O)C1CCOC1 (stereo partly drawn) [Example 116, N-((1R,2R)-2-(1-oxo-6-(5-(trifluoromethyl)-1,2,4-oxadiazol-3-yl)-1,3-dihydro-2H-isoindol-2-yl)cyclohexyl)tetrahydrofuran-3-carboxamide], the inhibition at 1 µM (HDAC6 enzyme) is reported as 98%, the inhibition at 1 µM (HDAC1 enzyme) is reported as 4% and the inhibition at 1 µM (HDAC9 enzyme) is reported as 45%.
With O=C(Cc1cc(=O)[nH][nH]1)N[C@@H]1CCCC[C@H]1N1Cc2ccc(-c3noc(C(F)(F)F)n3)cc2C1=O [Example 117, 2-(5-oxo-2,5-dihydro-1H-pyrazol-3-yl)-N-((1R,2R)-2-(1-oxo-6-(5-(trifluoromethyl)-1,2,4-oxadiazol-3-yl)-1,3-dihydro-2H-isoindol-2-yl)cyclohexyl)acetamide] the inhibition at 1 µM (HDAC6 enzyme) was 97%, the inhibition at 1 µM (HDAC1 enzyme) was 4% and the inhibition at 1 µM (HDAC9 enzyme) was 27%.
In the case of O=C1CCC(C(=O)N[C@@H]2CCCC[C@H]2N2Cc3ccc(-c4noc(C(F)(F)F)n4)cc3C2=O)=NN1 [Example 118, 6-oxo-N-((1R,2R)-2-(1-oxo-6-(5-(trifluoromethyl)-1,2,4-oxadiazol-3-yl)-1,3-dihydro-2H-isoindol-2-yl)cyclohexyl)-1,4,5,6-tetrahydropyridazine-3-carboxamide], the inhibition at 1 µM (HDAC6 enzyme) is reported as 98%, the inhibition at 1 µM (HDAC1 enzyme) is reported as 5% and the inhibition at 1 µM (HDAC9 enzyme) is reported as 46%.
O=C(N[C@@H]1CCCC[C@H]1N1Cc2ccc(-c3noc(C(F)(F)F)n3)cc2C1=O)C1CCCCCO1 (stereo partly drawn) [Example 119, N-((1R,2R)-2-(1-oxo-6-(5-(trifluoromethyl)-1,2,4-oxadiazol-3-yl)-1,3-dihydro-2H-isoindol-2-yl)cyclohexyl)oxepane-2-carboxamide] was tested, and the inhibition at 1 µM (HDAC6 enzyme) was 100%, the “HDAC1 inhibitory rate (%) (1 μM)” value (HDAC1 enzyme; 1 µM) was 4% and the inhibition at 1 µM (HDAC9 enzyme) was 38%.
CN1CC(C(=O)N[C@@H]2CCCC[C@H]2N2Cc3ccc(-c4noc(C(F)(F)F)n4)cc3C2=O)CC1=O (stereo partly drawn) [Example 120, 1-methyl-5-oxo-N-((1R,2R)-2-(1-oxo-6-(5-(trifluoromethyl)-1,2,4-oxadiazol-3-yl)-1,3-dihydro-2H-isoindol-2-yl)cyclohexyl)pyrrolidine-3-carboxamide] showed an inhibition at 1 µM (HDAC6 enzyme) of 79%, an inhibition at 1 µM (HDAC1 enzyme) of -3% and an inhibition at 1 µM (HDAC9 enzyme) of 37%.
